According to US9644083B2, “Cellulose acylate film, polarizing plate protective film, polarizing plate and liquid crystal display using the same” (FUJIFILM Corporation, priority 2014, dated 2017):

test: acid dissociation constant pKa by alkali titration method; type: physicochemical; conditions: 25° C., mixed solvent tetrahydrofuran 60 ml/water 40 ml
Protocol: The cellulose acylate film of the present invention contains at least two chelating agents. One of the two chelating agents is a chelating agent having a […] pKa and, in the present invention, such is a chelating agent (chelating agent A) having at least one functional group whose acid dissociation constant pKa measured at 25° C. in a mixed solvent having a mixing ratio of tetrahydrofuran 60 ml/water 40 ml is 6 or less.
The acid dissociation constant pKa can be measured in accordance with an alkali titration method described in Experimental Chemistry Course, 2nd Ed., pp. 215-217, published by MARUZEN PUBLISHING CO., LTD.
At least one residual chelating agent of the at least two chelating agents which the cellulose acylate film of the present invention contains, is a chelating agent B having at least one functional group of a conjugate acid, whose pKa measured at 25° C. in a mixed solvent having a mixing ratio of tetrahydrofuran 60 ml/water 40 ml, is 7 or more.

Q: For `O=C(O)CN(CCN(CC(=O)O)CC(=O)O)CCN(CC(=O)O)CC(=O)O` [diethylenetriaminepentaacetic acid], which “Chelating agent A pKa of acidic group” value is on record?
A: 3.6

Q: For `CCCCCCCCCCCCCCCC(=O)OC[C@H](O)[C@H]1OC(=O)C(O)=C1O` [L-ascorbic acid palmitic acid ester], which “Chelating agent A pKa of acidic group” value is on record?
A: 6.0

Q: With `O=P(O)(O)CN(CCN(CP(=O)(O)O)CP(=O)(O)O)CP(=O)(O)O` [PH-540, Ethylenediamine N,N,N′,N′-tetrakis(methylenephosphonic acid)] as the molecule, how does the “Chelating agent A pKa of acidic group” value read?
A: Less than 3

same assay, conditions: pKa of conjugate acid; 25° C., mixed solvent tetrahydrofuran 60 ml/water 40 ml; read-out: Chelating agent B pKa of basic group

Q: With `ONc1nc(NC2CCCCC2)nc(NC2CCCCC2)n1` [Chelating agent D] as the molecule, how does the pKa read?
A: 14

Q: With `CC(O)CN(CCN(CC(C)O)CC(C)O)CCN(CC(C)O)CC(C)O` (stereo not drawn) [N,N,N′,N″,N″-pentakis(2-hydroxypropyl)diethylenetriamine] as the molecule, how does the pKa read?
A: 8.4

Q: With `NCCNCCNCCN` [triethylenetetramine] as the molecule, how does the pKa read?
A: 8.9
